Patent publication US12668607B2, “Heterocyclic amide compound, preparation method therefor and use thereof” (SHANGHAI JEYOU PHARMACEUTICAL CO., LTD., priority 2019, dated 2026)
pEC50, pIC50: −log10 of the molar value.

What was measured:
[1] = system: THP1-Dual™ cells; assay: THP-Dual in vitro binding assay (THP1-Dual reporter cells, Lucia luciferase/QUANTI-Luc); format: cell-based, human; settings: 30 min compound exposure, wash, 18 h incubation, IF-α/β activity by QUANTI-Luc
Excerpt: The THP1-Dual™ cells used in the assay (InvivoGen, Catalog code: thpd-nfis) were constructed by stable integration of two inducible reporter genes in the human monocyte-like cell line THP1. The promoter sequence of the secretory embryo alkaline phosphatase (SEAP) reporter gene comprised an IFN-β basal promoter, 5 copies of NF-κB coexpression transcriptional response elements (NF-κB consensus transcriptional response elements) at the upstream and 3 copies of c-Rel binding sites. The secreted luciferase (Lucia) reporter gene was driven by 5 interferon-stimulated response elements (IFN-stimulated response elements) and a basal promoter of ISG54, thus making it possible to study two major downstream signaling pathways of STING simultaneously: the NF KB pathway was studied by assaying the SEAP activity; and the IRF pathway was studied by assessing the activity of Lucia luciferase.
To each well of a 96-well plate were added 20 μL of reference compounds or the compounds to be detected followed by the addition of 180 μL of THP1-Dual™ cell-containing FBS-free RPMI-1640 culture medium (about 90,000 cells/well). After incubating at 37° C. for 30 min under 5% CO2, the plate was centrifuged at 1000 rpm for 10 min, the supernatant was discarded, and the plate was washed twice with RPMI-1640 at 200 μL/well, and incubated for 18 h with RPMI-1640 at 200 µL/well. IF-α/β activity was quantified using QUANTI-Luc™ prepared and used according to the manufacturer's instructions.

[2] = target: T1, human STING protein (Homo sapiens, UniProt Q86WV6, H232R); assay: STING in vitro binding assay (fluorescence polarization, FP affinity assay); settings: competition with 30 nM fluorescein-labeled c-di-GMP, 10 μM recombinant human wild-type STING C-terminal protein (aa 140-379), 30 min room temperature
T1 construct: from the 140th amino acid to the 379th amino acid; 6His-SUMO (N, cleaved yes); made in house
Method: Fluorescence polarization assay (FP assay) was used to detect the affinities of compounds to a human STING protein. The reaction system contained a certain amount of fluorescein labeled C-di-GMP and compounds to be detected with different concentrations, and when the C-terminal protein of the recombinant human STING was added, the two small molecules were competitively bound with the protein. The bound fluorescein-labeled c-di-GMP rotated slowly in the liquid phase, and at this point, the degree of fluorescence polarization detected was also high. The fluorescence polarization degree was in inverse relation with the concentrations and the affinities of the compounds to be detected. By detecting the magnitude of the polarized light in the reaction system, the affinities of the compounds to be detected to human STING could be accurately known.
The N-terminal of the recombinant STING protein was a 6His-SUMO sequence to facilitate correct protein folding and purification, and after protease cleavage, the C-terminal STING was used for FP assay.
In FP assay, a 384-well plate was used, with the fluorescein-labeled c-di-GMP with a final concentration of 30 nM, 10 μM human STING protein, and either reference compounds with different concentrations or the compounds to be detected added into 10 μL of the reaction system each well. The plate was centrifuged at 1000 g for 1 min, incubated at room temperature for 30 min in the dark and read with Envision.

[3] = system: colon cancer cells CT26; assay: Drug efficacy evaluation in CT26 syngeneic mouse model; format: in vivo, Balb/C mice; settings: CT26 subcutaneous tumors
Method: The compound efficacy evaluation was carried out by a CT26 syngeneic mouse model in this experiment. 3E5 colon cancer cells CT26 (ATCC-CRL-2638) were inoculated subcutaneously into 6-8 week-old Balb/C mice (Shanghai Lingchang Biotechnology Co., Ltd.), and the mice were randomly divided grouped, 6 mice per group when the tumor volume reached 100 mm^3. Intratumoral administration was performed on day 1 after grouping. Compound 1 was administered at a dose of 1 μg per mouse, 0.1 μg per mouse and 0.01 μg per mouse, respectively, for each group. Tumor volume measurements were taken three times a week after the start of administration. The calculation formula for tumor volume was: V=0.5a×b^2, with a and b representing the long and short diameters of the tumor, respectively. Each point is the mean and standard error of mean (SEM) of the tumor volume. Differences between control (saline) and administered groups were statistically analyzed using two-way ANOVA (statistical differences on day 15: Prism 8, ****p<0.0001).

T1 sequence (Q86WV6 140-379 H232R): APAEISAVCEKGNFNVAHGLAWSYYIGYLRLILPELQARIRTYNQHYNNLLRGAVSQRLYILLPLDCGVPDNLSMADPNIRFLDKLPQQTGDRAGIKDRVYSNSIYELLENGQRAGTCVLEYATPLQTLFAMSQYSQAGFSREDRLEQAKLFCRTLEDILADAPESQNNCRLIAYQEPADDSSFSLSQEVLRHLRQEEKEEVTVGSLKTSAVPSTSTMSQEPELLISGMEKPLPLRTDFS

SMILES | pEC50 ([1]; Homo sapiens) | pIC50 [2] | tumor growth speed compared with the control group ([3]; intratumoral administration day 1, 1, 0.1 and 0.01 μg per mouse, two-way ANOVA day 15 ****p<0.0001 vs saline) | inhibition of tumor growth in mice (dose relation) ([3]; intratumoral, 1, 0.1 and 0.01 μg per mouse) | pEC50 [1]
CCn1nc(C)c2c1C(=O)/N=C1\Nc3cc(C(N)=O)cc(OCCCO[C@H]4[C@@H](OC)O[C@H](CO)[C@@H](O)[C@@H]4O)c3N1C/C=C/CN1/C(=N\C(=O)c3cc(C)nn3CCCCC2)Nc2cc(C(N)=O)cc(OC)c21 [Compound 5] | 7.22 | 5.82 | – | – | –
CCn1nc(C)cc1C(=O)/N=c1/[nH]c2cc(C(N)=O)cc(OC)c2n1C/C=C/Cn1/c(=N/C(=O)c2cc(C)nn2CC)[nH]c2cc(C(N)=O)cc(OCCCO[C@H]3[C@@H](OC)O[C@H](CO)[C@@H](O)[C@@H]3O)c21 [Compound 1] | 7.68 | 6.40 | significantly slowed down | dose-dependent | –
CCn1nc(C)cc1C(=O)/N=c1/[nH]c2cc(C(N)=O)cc(OC)c2n1C/C=C/Cn1/c(=N/C(=O)c2cc(C)nn2CC)[nH]c2cc(C(N)=O)cc(OCCN3CCCC4(CCNC4)C3)c21 (centres unmarked) [Compound 6] | 5.68 | 5.66 | – | – | –
Nc1ncnc2c1ncn2[C@@H]1O[C@@H]2COP(O)(=S)O[C@@H]3C(O)[C@@H](COP(O)(=S)O[C@H]2[C@H]1O)O[C@H]3n1cnc2c(N)ncnc21 (some centres unmarked) [ML RR-S2 CDA, reference compound] | – | – | – | – | 4.74
CCn1nc(C)cc1C(=O)/N=c1/[nH]c2cc(C(N)=O)cc(OCCCN3CCOCC3)c2n1C/C=C/Cn1/c(=N/C(=O)c2cc(C)nn2CC)[nH]c2cc(C(N)=O)cc(OCCCO[C@H]3[C@@H](OC)O[C@H](CO)[C@@H](O)[C@@H]3O)c21 [Compound 4] | 6.28 | 5.80 | – | – | –
CCn1nc(C)cc1C(=O)/N=c1/[nH]c2cc(C(N)=O)cc(OC)c2n1C/C=C/Cn1/c(=N/C(=O)c2cc(C)nn2CC)[nH]c2cc(C(N)=O)cc(OCCCOC(=O)[C@@H](N)C(C)C)c21 [Compound 2] | 8.10 | 5.77 | – | – | –
CCn1nc(C)cc1C(=O)/N=c1/[nH]c2cc(C(N)=O)cc(OC)c2n1C/C=C/Cn1/c(=N/C(=O)c2cc(C)nn2CC)[nH]c2cc(C(N)=O)cc(OCCCN3CC4(COC4)C3)c21 [Compound 7] | 7.10 | 5.42 | – | – | –
CCn1nc(C)cc1C(=O)/N=c1/[nH]c2cc(C(N)=O)cc(OC)c2n1C/C=C/Cn1/c(=N/C(=O)c2cc(C)nn2CC)[nH]c2cc(C(N)=O)cc(OCCCO[C@H]3[C@H](OC)O[C@H](CO)[C@H]3O)c21 [Compound 3] | 7.40 | 5.43 | – | – | –
